Experimental data as given in US20150140123A1, “Protein expression analyses for identifying genotoxic compounds” (Merck Patent GmbH, priority 2012, published 2015).
Read-outs that look alike come from different tables or passages of the source.

Assays:
[1] = system: HepG2 cells; experiment: High content imaging cytotoxicity parameters: selected cell count per valid field (SCC) and CMFDA cytoplasm average intensity; settings: 48 h
Protocol: (§1) HepG2 cells (Order No. HB-8065, Lot. 58483209, ATCC, Manassas, USA) were cultured in DMEM/F12 with L-Glutamine and 15 mM Hepes supplemented with 10% (v/v) FBS, 1% (v/v) penicillin (10 kU/ml)/streptomycin (10 mg/ml) solution, 0.1% (v/v) gentamicin (50 mg/ml), and 1 mM sodium pyruvate at 37° C. and 5% CO2 in culture flasks. Depending on the experiment, an appropriate number of cells were seeded onto plates after detaching of the cells using trypsin and cells were cultured at 37° C. and 5% CO2 for 24 h prior to treatment. All experiments were performed three times with cells of passages 4-20.
(§2) Cells were seeded onto black Poly-D-Lysin coated 96-well-plates (BD Biocoat, Franklin Lakes, USA) (0.02×10^6 cells/well) and left 24 h for adherence and then treated with test compounds at a maximum concentration of 1 mM which is recommended by the ICH S2(R1) guideline (EMA, 2011). For each compound, nine concentrations were tested with 2-fold serial dilutions. DMSO 1% (v/v) served as vehicle control for the experiments. The treatment procedure was different for direct-genotoxic and pro-genotoxic compounds. The treatment for direct genotoxic compounds was ongoing and was repeated daily over 48 h. Pro-genotoxic compounds were incubated for 6 h together with metabolic activation system (to limit the cytotoxic effect of the S9-mixture). After this period, cells were washed with cell media followed by 18-repeated daily over 48 h. The metabolic activation system used consisted of the following components and concentrations: 8 mM MgCl2, 32.8 mM KCl, 12 mM NADPH, 124 mM phosphate buffer and 2500 pmol/ml cytochrome P450 (CYP) content in the pre-mixture corresponding to 2.4 mM MgCl2, 9.8 mM KCl, 3.6 mM NADPH, 37.2 mM phosphate buffer, and 750 pmol/ml CYP as final concentrations after dilution 1:3.33 with cell culture media.
After treatment, cells were rinsed with PBS (Gibco Invitrogen, Karlsruhe, Germany), and then stained with 10 μM CellTracker Green 5-Chloromethylfluorescein Diacetate (CMFDA) (Invitrogen, Karlsruhe, Germany) in cell culture media for 30 min. CMFDA is per se non-fluorescent and is hydrolyzed by esterase in viable cells to a fluorescent-dye. The reaction with thiol groups leads to a cell-impermeable fluorescent-dye-adduct. The esterase activity can be used as an indicator for viability of cells (Papadopoulos et al., 1994, J Immunol Methods 177, 101-11). Afterwards, cells were washed with PBS and fixed with 3.7% Formaldehyde (Sigma-Aldrich, Taufkirchen, Germany) in PBS for 20 min. After that, cells were washed with PBS and blocked and permeabilized with 2% donkey serum (Millipore, Schwalbach, Germany) and 0.25% Triton X-100 (Sigma-Aldrich, Taufkirchen, Germany) in PBS for 30 min. Primary antibodies were diluted in Blocking/Permeabilization solution to final concentrations of 4 μg/ml anti-p-Chk1 (Ser345) goat polyclonal antibody IgG (santa cruz, Santa Cruz, USA), 4 μg/ml anti-p-ATM (Ser1981) mouse monoclonal antibody IgG1K (Millipore, Schwalbach, Germany) and added to the cells. After incubation for 16-18 h, cells were washed with 0.05% Tween 20 (Calbiochem, Darmstadt, Germany) in PBS, and the secondary antibody/16 μM Hoechst staining solution Blocking/Permeabilization solution was added. Secondary antibodies were diluted 1:400 (Alexa Fluor 555 donkey anti-goat, Alexa Fluor 647 donkey anti-mouse, Invitrogen, Karlsruhe, Germany). After an incubation of 1 h, followed by two additional washing steps with 0.05% Tween 20, cells were washed with PBS and finally PBS was added and cells were measured.
Image acquisition was performed on the ArrayScan VTI HCS Reader (Cellomics, Pittsburgh, USA) using a 20× objective. To detect enough cells, 50 images starting at the middle of each well were gathered.
• Channel 1: selected cell count per valid field • Channel 2: CMFDA cytoplasm average intensity • Channel 3: p-Chk1 (Ser345) nucleus average intensity • Channel 4: p-ATM (Ser1981) nucleus average intensity

[2] = system: p-p53 (Ser15), p21, p-H2A.X (Ser139), p-ATM (Ser1981), p-Chk1 (Ser345) in HepG2 cells
Protocol: as §1, §2
Two different staining procedures were performed for each compound with and without metabolic activation system:
After treatment, cells were rinsed with PBS (Gibco Invitrogen, Karlsruhe, Germany), and then fixed with 3.7% formaldehyde (Sigma-Aldrich, Taufkirchen, Germany) in PBS for 20 min. After an additional washing step with PBS, cells were blocked and permeabilized with 2% donkey serum (Millipore, Schwalbach, Germany) and 0.25% Triton X-100 (Sigma-Aldrich, Taufkirchen, Germany) in PBS for 30 min. Primary antibodies were diluted to final concentrations of 2 μg/ml anti-p-p53 (Ser15) rabbit monoclonal antibody IgG (Invitrogen, Karlsruhe, Germany), 0.8 μg/ml anti-p21 goat polyclonal antibody IgG, (R&D systems, Minneapolis, USA); 4 μg/ml anti-p-Histone H2A.X (Ser139) mouse monoclonal antibody IgG1 (Millipore, Schwalbach, Germany) in Blocking/Permeabilization solution were added afterwards. After incubation for 16-18 h, cells were washed with 0.05% Tween 20 (Calbiochem, Darmstadt, Germany) in PBS and the secondary antibody/16 μM Hoechst staining solution in Blocking/Permeabilization solution was added. Secondary antibodies were diluted 1:400 (Alexa Fluor 488 donkey anti-rabbit, Alexa Fluor 555 donkey anti-goat, Alexa Fluor 647 donkey anti-mouse, Invitrogen, Karlsruhe, Germany). After an incubation of 1 h, followed by two additional washing steps with 0.05% Tween 20, cells were washed with PBS and finally PBS was added and cells were measured.
After treatment, cells were rinsed with PBS (Gibco Invitrogen, Karlsruhe, Germany), and then stained with 10 μM CellTracker Green 5-Chloromethylfluorescein Diacetate (CMFDA) (Invitrogen, Karlsruhe, Germany) in cell culture media for 30 min. CMFDA is per se non-fluorescent and is hydrolyzed by esterase in viable cells to a fluorescent-dye. The reaction with thiol groups leads to a cell-impermeable fluorescent-dye-adduct. The esterase activity can be used as an indicator for viability of cells (Papadopoulos et al., 1994, J Immunol Methods 177, 101-11). Afterwards, cells were washed with PBS and fixed with 3.7% Formaldehyde (Sigma-Aldrich, Taufkirchen, Germany) in PBS for 20 min.

[3] = system: p-ATM (Ser1981); experiment: High content imaging of p-ATM (Ser1981) nucleus average intensity; type: cell-based, human; settings: HepG2 cells, 48 h; fold-change over vehicle control, threshold 1.8
Protocol: as §1
Cells were seeded onto black Poly-D-Lysin coated 96-well-plates (BD Biocoat, Franklin Lakes, USA) (0.02×10^6 cells/well) and left 24 h for adherence and then treated with test compounds at a maximum concentration of 1 mM which is recommended by the ICH S2(R1) guideline (EMA, 2011). […]
After treatment, cells were rinsed with PBS (Gibco Invitrogen, Karlsruhe, Germany), and then stained with 10 μM CellTracker Green 5-Chloromethylfluorescein Diacetate (CMFDA) (Invitrogen, Karlsruhe, Germany) in cell culture media for 30 min. […] After an incubation of 1 h, followed by two additional washing steps with 0.05% Tween 20, cells were washed with PBS and finally PBS was added and cells were measured.
Image acquisition was performed on the ArrayScan VTI HCS Reader (Cellomics, Pittsburgh, USA) using a 20× objective. […]

[4] = HepG2 cells, CMFDA cytoplasm average intensity, with rat liver S9 (+S9)
[5] = HepG2 cells, CMFDA cytoplasm average intensity, without metabolic activation (−S9)
[6] = HepG2 cells, selected cell count per valid field, with rat liver S9 (+S9)
[7] = HepG2 cells, selected cell count per valid field, without metabolic activation (−S9)
[8] = HepG2 cells ± S9, 48 h, positive if at least one of five proteins shows fold-change above threshold (2.1 p-Chk1, p-H2A.X; 1.8 p21, p-ATM; 1.9 p-p53)

| result for the five protein markers tested (compound set as positive or negative) [2] | result for p-ATM (Ser1981) [3] | Compound | CMFDA +S9 highest conc. <50% cytotox. over control [1, 4] [µM] | CMFDA −S9 highest conc. <50% cytotox. over control [1, 5] [µM] | SCC +S9 highest conc. <50% cytotox. over control [1, 6] [µM] | SCC −S9 highest conc. <50% cytotox. over control [1, 7] [µM] | result for the five protein markers tested (compound set as positive or negative) [2, 8] | CMFDA +S9 highest conc. <50% cytotox. over control ([1]; human) [µM] | CMFDA −S9 highest conc. <50% cytotox. over control ([1]; human) [µM] | SCC +S9 highest conc. <50% cytotox. over control ([1]; human) [µM] | SCC −S9 highest conc. <50% cytotox. over control ([1]; human) [µM] |
| --- | --- | --- | --- | --- | --- | --- | --- | --- | --- | --- | --- |
| – | – | Cc1ccc(N)cc1N [2,4-diaminotoluene] | 1000 | 1000 | 1000 | 1000 | no positive result | – | – | – | – |
| – | – | [Cl][Cd][Cl] [Cadmium chloride] | 62.5 | 62.5 | 125 | 31.25 | no positive result | – | – | – | – |
| – | – | CN(C)N=O [Dimethylnitrosamine] | 1000 | 1000 | 1000 | 1000 | no positive result | – | – | – | – |
| – | – | CCN(N=O)C(N)=O [Ethylnitrosourea] | 1000 | 1000 | 1000 | 1000 | no positive result | – | – | – | – |
| positive | – | C=CCc1ccc(O)c(OC)c1 [Eugenol] | – | – | – | – | – | 125 | 1000 | 125 | 1000 |
| – | positive | c1ccc2c(c1)ccc1ccccc12 [Phenanthrene] | – | – | – | – | – | 1000 | 1000 | 1000 | 1000 |
| positive | – | CCCOC(=O)c1cc(O)c(O)c(O)c1 [Propyl gallate] | – | – | – | – | – | 1000 | 1000 | 1000 | 500 |
